Laboratory results taken from patent US20250281497A1, “FUSED AMINO PYRIMIDINE COMPOUNDS FOR TREATMENT OF SEIZURE DISORDERS” (Ovid Therapeutics Inc., priority 2024, published 2025).

Molecular target: T1, KCC2 (Homo sapiens, UniProt Q9H2X9)
T1 construct: expressed in transfected cells; host or cells: HEK-293 (ATCC CRL-1573)
T1 sequence (Q9H2X9 1-1116 isoform Q9H2X9-2): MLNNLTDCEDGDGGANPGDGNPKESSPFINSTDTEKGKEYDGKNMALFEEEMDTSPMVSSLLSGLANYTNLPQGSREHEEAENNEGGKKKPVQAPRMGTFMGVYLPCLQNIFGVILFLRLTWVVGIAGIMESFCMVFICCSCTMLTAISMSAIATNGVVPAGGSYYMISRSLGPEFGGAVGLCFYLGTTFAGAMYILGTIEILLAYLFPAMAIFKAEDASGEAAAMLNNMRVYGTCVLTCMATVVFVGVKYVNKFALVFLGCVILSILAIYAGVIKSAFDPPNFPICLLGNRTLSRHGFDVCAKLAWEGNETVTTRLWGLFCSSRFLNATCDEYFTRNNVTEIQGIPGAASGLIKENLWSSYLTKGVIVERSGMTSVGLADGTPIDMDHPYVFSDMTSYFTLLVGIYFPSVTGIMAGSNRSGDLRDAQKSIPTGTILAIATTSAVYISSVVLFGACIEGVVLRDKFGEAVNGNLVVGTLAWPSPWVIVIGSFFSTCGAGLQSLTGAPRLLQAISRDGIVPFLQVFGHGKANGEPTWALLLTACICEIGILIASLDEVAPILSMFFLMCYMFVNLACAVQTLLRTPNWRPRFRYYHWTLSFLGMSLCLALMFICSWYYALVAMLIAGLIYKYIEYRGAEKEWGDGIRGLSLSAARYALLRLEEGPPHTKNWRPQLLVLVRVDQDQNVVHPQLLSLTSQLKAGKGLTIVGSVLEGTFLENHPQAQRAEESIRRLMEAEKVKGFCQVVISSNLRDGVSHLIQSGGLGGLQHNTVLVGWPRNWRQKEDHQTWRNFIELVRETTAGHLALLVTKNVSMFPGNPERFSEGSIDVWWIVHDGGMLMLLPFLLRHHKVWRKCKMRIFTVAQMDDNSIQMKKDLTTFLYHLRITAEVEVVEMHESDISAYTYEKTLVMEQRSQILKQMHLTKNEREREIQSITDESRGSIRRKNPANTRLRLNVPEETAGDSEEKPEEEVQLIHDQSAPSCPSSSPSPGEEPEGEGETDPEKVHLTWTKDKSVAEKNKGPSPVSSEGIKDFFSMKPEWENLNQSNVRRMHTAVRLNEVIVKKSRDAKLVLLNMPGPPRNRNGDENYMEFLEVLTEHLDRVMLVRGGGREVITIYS
Test: Cellular thermal shift assay (CETSA) in transfected HEK-293 cells
Assay type: binding
Conditions: 30 μM, 90 min, heated 37-58° C.
Protocol: Determining if compounds in SSA directly interact with KCC2. This was tested using a cellular thermal shift assay (CETSA), which measures the ability of a drug to modify the thermal stability of its target in whole cells (Kawatkar et al., ACS Chem. Biol. 14, 1913-1920 (2019); Martinez et al., Sci Rep 8, 9472 (2018)).
2×10^6 transfected HEK-293 cells were incubated with 30 μM drug or vehicle for 90 min at 37° C. and then heated from 37-58° C. for 5 min. Cells were rapidly chilled to 25° C. and NP40 was added to a final concentration […] to snap freezing in liquid nitrogen. Following 5 freeze/thaw cycles lysates were centrifuged at 12,000×g to remove denatured proteins and associated cell debris.
Aliquots of HEK-293 cells expressing KCC2 were exposed to 30 μM SSA, heated from 37-55° C. The remaining level of soluble native KCC2 at each temperature was measured by immunoblotting and normalized to the level seen at 37° C. which was given a value of 1. […] This panel included protein kinase C isoforms, OSR1, SPAK (STK39) and with-no-lysine kinases (WNK), all of which phosphorylate KCC2 on multiple residues to indirectly modify its activity (Kahle et al., 2013, supra; Smalley et al., 2020, supra).

For `C[C@@H]1CN(c2nc3c(c(Nc4ccc(C5CCCCC5)cc4)n2)COC3)CCO1` [Compound A, (R)—N-(4-cyclohexylphenyl)-2-(2-methylmorpholino)-5,7-dihydrofuro[3,4-d]pyrimidin-4-amine], the “thermal stability of KCC2 / direct binding (CETSA)” value was “capable of directly binding to KCC2”.
